In paper PMC4043872 (Chembiochem : a European journal of chemical biology, 2014):

Key:
[1] = biological target: T1, ALDH1A1 (Homo sapiens, UniProt P00352); assay: ALDH1A1 inhibition, propionaldehyde as substrate; type: biochemical; settings: up to 250 μM
T1 sequence (P00352 1-501): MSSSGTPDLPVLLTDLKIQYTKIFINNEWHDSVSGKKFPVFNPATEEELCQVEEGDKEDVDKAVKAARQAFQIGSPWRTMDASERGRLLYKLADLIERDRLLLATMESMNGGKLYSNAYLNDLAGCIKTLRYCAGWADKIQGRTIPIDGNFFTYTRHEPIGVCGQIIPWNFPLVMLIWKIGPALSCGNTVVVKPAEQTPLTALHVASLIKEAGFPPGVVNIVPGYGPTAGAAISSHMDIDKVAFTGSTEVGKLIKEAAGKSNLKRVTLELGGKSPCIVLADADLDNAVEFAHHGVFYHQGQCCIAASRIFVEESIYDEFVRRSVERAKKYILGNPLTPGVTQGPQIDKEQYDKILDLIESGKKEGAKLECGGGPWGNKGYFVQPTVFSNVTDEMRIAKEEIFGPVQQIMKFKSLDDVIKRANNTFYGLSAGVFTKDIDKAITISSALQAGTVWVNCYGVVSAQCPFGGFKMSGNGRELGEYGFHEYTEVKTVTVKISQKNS

[2] = biological target: T2, ALDH1A2 (Homo sapiens, UniProt O94788); assay: ALDH1A2 activity assay, propionaldehyde/NAD+; type: biochemical; settings: up to 250 μM
T2 sequence (O94788 1-518): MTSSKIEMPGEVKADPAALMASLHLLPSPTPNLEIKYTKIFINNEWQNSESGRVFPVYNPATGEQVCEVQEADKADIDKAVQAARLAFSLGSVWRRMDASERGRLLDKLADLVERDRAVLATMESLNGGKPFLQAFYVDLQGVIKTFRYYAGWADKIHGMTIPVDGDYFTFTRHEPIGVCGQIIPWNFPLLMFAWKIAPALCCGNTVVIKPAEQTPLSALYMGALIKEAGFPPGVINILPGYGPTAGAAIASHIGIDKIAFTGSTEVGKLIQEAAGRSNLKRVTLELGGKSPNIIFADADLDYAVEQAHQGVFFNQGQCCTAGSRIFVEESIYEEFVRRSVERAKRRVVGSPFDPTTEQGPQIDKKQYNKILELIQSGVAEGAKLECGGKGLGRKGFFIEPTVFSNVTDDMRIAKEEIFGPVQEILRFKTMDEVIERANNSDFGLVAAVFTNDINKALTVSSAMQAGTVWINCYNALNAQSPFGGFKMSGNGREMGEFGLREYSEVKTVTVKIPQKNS

[3] = biological target: T3, ALDH1A3 (Homo sapiens, UniProt P47895); assay: ALDH1A3 activity assay, propionaldehyde/NAD+; type: biochemical; settings: up to 250 μM
T3 sequence (P47895 1-512): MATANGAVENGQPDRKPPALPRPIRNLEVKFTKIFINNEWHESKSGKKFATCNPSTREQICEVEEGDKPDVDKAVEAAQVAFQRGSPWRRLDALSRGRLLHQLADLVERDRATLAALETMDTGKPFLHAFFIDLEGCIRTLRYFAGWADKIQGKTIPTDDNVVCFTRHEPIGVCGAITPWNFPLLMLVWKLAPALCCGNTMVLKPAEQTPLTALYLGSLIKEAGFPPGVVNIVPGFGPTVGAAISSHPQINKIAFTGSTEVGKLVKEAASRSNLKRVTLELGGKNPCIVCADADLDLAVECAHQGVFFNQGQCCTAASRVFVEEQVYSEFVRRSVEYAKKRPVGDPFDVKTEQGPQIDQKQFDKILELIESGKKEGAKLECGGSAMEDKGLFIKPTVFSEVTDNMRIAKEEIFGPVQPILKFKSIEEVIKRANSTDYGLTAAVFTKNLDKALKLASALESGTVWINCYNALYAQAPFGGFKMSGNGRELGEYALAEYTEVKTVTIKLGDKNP

[4] = biological target: T4, ALDH1B1 (Homo sapiens, UniProt P30837); assay: ALDH1B1 activity assay, propionaldehyde/NAD+; type: biochemical; settings: up to 250 μM
T4 sequence (P30837 18-517): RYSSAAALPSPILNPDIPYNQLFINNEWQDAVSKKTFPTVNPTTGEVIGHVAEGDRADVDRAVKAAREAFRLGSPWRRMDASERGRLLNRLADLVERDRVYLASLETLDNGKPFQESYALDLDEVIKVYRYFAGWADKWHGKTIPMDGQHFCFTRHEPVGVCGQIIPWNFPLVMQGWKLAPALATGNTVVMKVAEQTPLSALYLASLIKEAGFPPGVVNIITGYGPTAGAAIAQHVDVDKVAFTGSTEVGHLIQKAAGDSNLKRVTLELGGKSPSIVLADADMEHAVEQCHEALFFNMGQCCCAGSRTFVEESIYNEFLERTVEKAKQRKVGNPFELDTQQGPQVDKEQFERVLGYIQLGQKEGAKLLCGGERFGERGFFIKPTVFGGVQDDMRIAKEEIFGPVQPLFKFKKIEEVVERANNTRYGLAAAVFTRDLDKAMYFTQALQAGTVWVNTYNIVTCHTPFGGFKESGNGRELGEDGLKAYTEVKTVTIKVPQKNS

[5] = biological target: T5, ALDH2 (Homo sapiens, UniProt P05091); assay: ALDH2 inhibition, propionaldehyde as substrate; type: biochemical; settings: up to 250 μM
T5 sequence (P05091 18-517): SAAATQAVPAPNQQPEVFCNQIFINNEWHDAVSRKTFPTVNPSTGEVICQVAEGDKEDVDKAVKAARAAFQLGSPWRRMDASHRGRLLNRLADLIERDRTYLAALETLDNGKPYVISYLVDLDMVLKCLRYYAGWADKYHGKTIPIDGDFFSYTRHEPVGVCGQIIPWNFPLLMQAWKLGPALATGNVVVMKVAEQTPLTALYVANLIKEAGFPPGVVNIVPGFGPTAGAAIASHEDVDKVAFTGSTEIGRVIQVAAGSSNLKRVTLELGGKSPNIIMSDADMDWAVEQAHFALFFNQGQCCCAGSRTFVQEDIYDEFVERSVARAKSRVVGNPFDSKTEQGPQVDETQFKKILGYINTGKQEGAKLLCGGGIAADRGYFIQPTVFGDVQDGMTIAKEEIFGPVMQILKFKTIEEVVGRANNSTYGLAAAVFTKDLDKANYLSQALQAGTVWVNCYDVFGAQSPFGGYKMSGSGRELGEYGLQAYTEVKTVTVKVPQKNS

[6] = biological target: T6, ALDH3A1 (Homo sapiens, UniProt P30838); assay: Steady-state kinetics, mode of inhibition of ALDH3A1; type: biochemical
T6 sequence (P30838 1-453): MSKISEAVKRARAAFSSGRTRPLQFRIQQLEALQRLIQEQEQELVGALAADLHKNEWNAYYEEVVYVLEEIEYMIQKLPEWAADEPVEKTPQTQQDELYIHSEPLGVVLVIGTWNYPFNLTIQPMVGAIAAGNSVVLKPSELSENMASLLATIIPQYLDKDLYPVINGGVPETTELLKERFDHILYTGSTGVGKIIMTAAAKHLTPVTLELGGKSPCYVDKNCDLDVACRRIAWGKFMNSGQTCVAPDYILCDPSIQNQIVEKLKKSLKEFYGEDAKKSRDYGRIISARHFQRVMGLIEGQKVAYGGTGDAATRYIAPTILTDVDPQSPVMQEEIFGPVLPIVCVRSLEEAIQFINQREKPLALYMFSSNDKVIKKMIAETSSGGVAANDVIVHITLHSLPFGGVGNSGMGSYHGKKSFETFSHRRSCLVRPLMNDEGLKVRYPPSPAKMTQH

[7] = biological target: T7, ALDH3A1 activity in A549 cell lysates (Homo sapiens, UniProt P30838); assay: Cell lysate ALDH3A1 activity in presence and absence of CB29, A549; type: biochemical; settings: 50 μM CB29, […] NADP+, 1 mM benzaldehyde
T7 sequence (P30838 1-453): T6 sequence (P30838 1-453)

[8] = biological target: T8, ALDH3A1 activity in SF767 cell lysates (Homo sapiens, UniProt P30838); assay: Cell lysate ALDH3A1 activity in presence and absence of CB29, SF767; type: biochemical; settings: 50 μM CB29, […] NADP+, 1 mM benzaldehyde
T8 sequence (P30838 1-453): T6 sequence (P30838 1-453)

[9] = biological target: T6, ALDH3A1; assay: Recombinant ALDH3A1 activity in presence and absence of CB29; type: biochemical; settings: 50 μM CB29, […] NADP+, 1 mM benzaldehyde
[10] = Formation of homogeneous solution; type: physicochemical; settings: in the presence of […] DMSO
[11] = system: A549 cells; settings: 50 μM inhibitor alone, 19 hours, MTT, Figure 4A grey bars
[12] = system: SF767 cells
[13] = system: CCD-13Lu cells; assay: Colorimetric MTT assay for mafosfamide sensitivity, CCD-13Lu; settings: 19 hours, Figure 4C

Question: With `CC(=O)Nc1ccc(Nc2ccc(S(C)(=O)=O)cc2[N+](=O)[O-])cc1` [CB29, N-[4-{(4-(methylsulfonyl)-2-nitrophenyl)-4-amino}-phenyl]-acetamide] as the compound, how does the “inhibition toward ALDH1A1” value [1] read?
Answer: < 5%

Question: What about the “inhibition toward ALDH1A2” value [2] of the same compound?
Answer: < 5%

Question: What about the “inhibition toward ALDH1A3” value [3] of the same compound?
Answer: < 5%

Question: What about the “inhibition toward ALDH1B1” value [4] of the same compound?
Answer: < 5%

Question: And the “inhibition toward ALDH2” value [5]?
Answer: < 5%

Question: And the Ki ([6]; competitive versus varied benzaldehyde, fixed NADP+ […], 10 nM ALDH3A1)?
Answer: 4 µM

Question: What about the mode of inhibition ([6]; with respect to benzaldehyde) of the same compound?
Answer: competitive

Question: What about the “decrease of ALDH3A1 activity in A549 cell lysate” value [7] of the same compound?
Answer: > 95%

Question: And the “decrease of ALDH3A1 activity in SF767 cell lysate” value [8]?
Answer: > 90%

Question: What about the “decrease of activity of recombinant ALDH3A1” value [9] of the same compound?
Answer: ~ 97%

Question: What about the homogeneous solution formed [10] of the same compound?
Answer: ≥ 100 µM

Question: What about the “effect on cell proliferation as single agent, A549 (in words)” value [11] of the same compound?
Answer: little effect

Question: And the “increase in mafosfamide chemosensitivity, SF767” value ([12]; 50 μM inhibitor + […] mafosfamide, 19 hours, MTT, p<0.005)?
Answer: ~2 fold

Question: What about the “effect on cell proliferation as single agent, SF767 (in words)” value ([12]; 50 μM inhibitor alone, 19 hours, MTT, Figure 4B grey bars) of the same compound?
Answer: little effect

Question: What about the “decrease of ED50 value of mafosfamide in the presence of inhibitor, SF767” value ([12]; inhibitor 50 μM, Figure 5B) of the same compound?
Answer: 1.6 fold

Question: What about the “ED50 of mafosfamide in the presence of inhibitor, SF767” value ([12]; inhibitor 50 μM, mafosfamide 0-250 μM, MTT, Figure 5B) of the same compound?
Answer: 92 ± 4 µM

Question: What about the “enhancement of mafosfamide sensitivity, CCD-13Lu (in words)” value ([13]; 50 μM inhibitor + 40 μM mafosfamide) of the same compound?
Answer: did not show mafosfamide chemosensitivity

Question: And the “cytotoxicity / proliferation with inhibitor alone, CCD-13Lu (in words)” value ([13]; 50 μM inhibitor)?
Answer: unaffected
